This is an account of results in PubChem BioAssay AID435029 (Sanford-Burnham Center for Chemical Genomics, 2010).

Calls of active or inactive are those of the source. The rule behind the calls is not given here. Where only a bound is given, the exact number is not on record here.

The test system of the test is HIV Env-mediated cell-cell fusion, luminescence reporter. The test can be described thus: blockers of envelope-mediated cell fusion – luminescence reporter, SAR follow-up (AID 435029).
Usually IC50 stands for the concentration that gives 50% inhibition. `O=C(O)c1ccccc1N=Nc1c(O)[nH]c2ccc([N+](=O)[O-])cc12`: the IC50 is > 100 µM (inactive). As for `CC(C)(C)c1cc(-c2csc(Nc3ccccc3)[n+]2Cc2ccc(C(=O)O)cc2)cc(C(C)(C)C)c1O`, the IC50 is 3.5 µM. For the molecule `O=C(N/N=C/c1c(O)n(C2CCCCC2)c(=S)[nH]c1=O)c1ccccc1O`, the IC50 is 11.5 µM. The result for `COc1cc(C=NNc2ccc(Cl)c(C(=O)O)c2)ccc1OC(=O)c1ccccc1F` reads 68 µM; that for `COc1ccc(C(=O)Oc2ccc(C=NNc3ccc(Cl)c(C(=O)O)c3)cc2OC)cc1`, 13 µM; that for `Cc1c2c(=O)n(-c3nc4ccccc4s3)nc-2cc(O)n1Cc1ccccc1`, 6.58 µM. In the case of `COc1cc(C=NNc2ccc(Cl)c(C(=O)O)c2)ccc1OC(=O)c1ccc(F)cc1`, the IC50 is 30 µM. The result for `N#C/C(=C\c1ccc(O)c([N+](=O)[O-])c1)c1nc2ccccc2s1` reads 4.65 µM; that for `CCOC(=O)c1sc(N2C(=O)C(O)=C(C(=O)c3ccc(C)o3)C2c2cccc([N+](=O)[O-])c2)nc1C` (stereo not given), 5.1 µM.

For the molecule `O=C(O)c1cc(NN=Cc2ccc(-c3ccccc3)cc2)ccc1Cl`, the IC50 is 10 µM.
